In PubChem BioAssay AID256 (DTP/NCI, 2004):
Inconclusive results and toxic doses are left out.

Test system: CD2F1 mice, L1210 leukemia ip, survival T/C
Test: NCI In Vivo Anticancer Drug Screen. Data for tumor model L1210 Leukemia (intraperitoneal) in CD2F1 (CDF1) mice
Conditions: higher = longer survival
Method in brief: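 Vehicle-treated tumor-bearing mice served as controls (C) for compound-treated mice (T). Reported figure is T divided by C.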

[1] = endpoint: mean survival time, dose: 100.0 mg/kg/injection, schedule: Q04DX003 (ip), vehicle: saline with Tween-80
[2] = endpoint: mean survival time, dose: 200.0 mg/kg/injection, schedule: Q04DX003 (ip), vehicle: saline with Tween-80
[3] = endpoint: mean survival time, dose: 400.0 mg/kg/injection, schedule: Q04DX003 (ip), vehicle: saline with Tween-80

Structure (SMILES): O=c1[nH]c(=O)n(C2CC(O)C(CO)O2)cc1F (stereo unspecified)
- T/C (endpoint: mean survival time, dose: 5.0 mg/kg/injection, schedule: Q#A X018 (ip), vehicle: saline): 115 % of control
- T/C (endpoint: mean survival time, dose: 9.0 mg/kg/injection, schedule: Q#A X018 (ip), vehicle: saline): 121 % of control
- T/C (endpoint: mean survival time, dose: 12.5 mg/kg/injection, schedule: Q03HX024 (oral), vehicle: saline): 101 % of control
- T/C (endpoint: mean survival time, dose: 16.0 mg/kg/injection, schedule: Q#A X018 (ip), vehicle: saline): 121 % of control
- T/C (endpoint: mean survival time, dose: 25.0 mg/kg/injection, schedule: Q01DX005 (ip), vehicle: water): 108 % of control
- T/C (endpoint: mean survival time, dose: 25.0 mg/kg/injection, schedule: Q03HX008 (oral), vehicle: saline): 107 % of control
- T/C (endpoint: mean survival time, dose: 25.0 mg/kg/injection, schedule: Q03HX016 (ip), vehicle: saline): 96 % of control
- T/C (endpoint: mean survival time, dose: 26.0 mg/kg/injection, schedule: Q#A X018 (ip), vehicle: saline): 123 % of control
- T/C (endpoint: mean survival time, dose: 31.3 mg/kg/injection, schedule: Q01DX005 (ip), vehicle: saline): 121 % of control
- T/C (endpoint: mean survival time, dose: 37.5 mg/kg/injection, schedule: Q03DX003 (ip), vehicle: water): 121 % of control
- T/C (endpoint: mean survival time, dose: 37.5 mg/kg/injection, schedule: Q04DX003 (ip), vehicle: water): 100 % of control
- T/C (endpoint: mean survival time, dose: 43.0 mg/kg/injection, schedule: Q#A X018 (ip), vehicle: saline): 108 % of control
- T/C (endpoint: mean survival time, dose: 50.0 mg/kg/injection, schedule: Q01DX005 (ip), vehicle: water): 110 % of control
- T/C (endpoint: mean survival time, dose: 50.0 mg/kg/injection, schedule: Q01DX009 (oral), vehicle: saline): 119 % of control
- T/C (endpoint: mean survival time, dose: 50.0 mg/kg/injection, schedule: Q03HX008 (oral), vehicle: saline): 111 % of control
- T/C (endpoint: mean survival time, dose: 50.0 mg/kg/injection, schedule: Q03HX016 (ip), vehicle: saline): 111 % of control
- T/C (endpoint: mean survival time, dose: 50.0 mg/kg/injection, schedule: Q03HX024 (oral), vehicle: saline): 107 % of control
- T/C (endpoint: mean survival time, dose: 72.0 mg/kg/injection, schedule: Q#A X018 (ip), vehicle: saline): 106 % of control
- T/C (endpoint: mean survival time, dose: 75.0 mg/kg/injection, schedule: Q01DX007 (ip), vehicle: water): 100 % of control
- T/C (endpoint: mean survival time, dose: 75.0 mg/kg/injection, schedule: Q01DX009 (ip), vehicle: water): 110 % of control
- T/C (endpoint: mean survival time, dose: 75.0 mg/kg/injection, schedule: Q03DX003 (ip), vehicle: water): 122 % of control
- T/C (endpoint: mean survival time, dose: 75.0 mg/kg/injection, schedule: Q04DX003 (ip), vehicle: water): 111 % of control
- T/C (endpoint: mean survival time, dose: 80.0 mg/kg/injection, schedule: Q01DX009 (ip), vehicle: saline): 167 % of control
- T/C (endpoint: mean survival time, dose: 100.0 mg/kg/injection, schedule: Q01DX005 (ip), vehicle: water): 110 % of control
- T/C (endpoint: mean survival time, dose: 100.0 mg/kg/injection, schedule: Q03HX024 (oral), vehicle: saline): 92 % of control
- T/C (endpoint: mean survival time, dose: 100.0 mg/kg/injection, schedule: Q04DX003 (oral), vehicle: saline): 114 % of control
- T/C (endpoint: mean survival time, dose: 120.0 mg/kg/injection, schedule: Q#A X018 (ip), vehicle: saline): 94 % of control
- T/C (endpoint: mean survival time, dose: 125.0 mg/kg/injection, schedule: Q01DX001 (ip), vehicle: saline): 101 % of control
- T/C (endpoint: mean survival time, dose: 125.0 mg/kg/injection, schedule: Q01DX001 (oral), vehicle: saline): 101 % of control
- T/C (endpoint: mean survival time, dose: 125.0 mg/kg/injection, schedule: Q01DX001 (sc), vehicle: saline): 109 % of control
- T/C (endpoint: mean survival time, dose: 125.0 mg/kg/injection, schedule: Q01DX009 (oral), vehicle: saline): 121 % of control
- T/C (endpoint: mean survival time, dose: 125.0 mg/kg/injection, schedule: Q03HX008 (ip), vehicle: saline): 120 % of control
- T/C (endpoint: mean survival time, dose: 125.0 mg/kg/injection, schedule: Q03HX016 (ip), vehicle: saline): 110 % of control
- T/C (endpoint: mean survival time, dose: 125.0 mg/kg/injection, schedule: Q03HX024 (ip), vehicle: saline): 163 % of control
- T/C (endpoint: mean survival time, dose: 125.0 mg/kg/injection, schedule: Q04DX003 (ip), vehicle: saline): 119 % of control
- T/C (endpoint: mean survival time, dose: 125.0 mg/kg/injection, schedule: Q08DX002 (ip), vehicle: saline): 100 % of control
- T/C (endpoint: mean survival time, dose: 150.0 mg/kg/injection, schedule: Q01DX007 (ip), vehicle: water): 100 % of control
- T/C (endpoint: mean survival time, dose: 150.0 mg/kg/injection, schedule: Q01DX009 (ip), vehicle: water): 100 % of control
- T/C (endpoint: mean survival time, dose: 160.0 mg/kg/injection, schedule: Q01DX009 (ip), vehicle: saline): 151 % of control
- T/C (endpoint: mean survival time, dose: 200.0 mg/kg/injection, schedule: Q01DX001 (oral), vehicle: saline): 113 % of control
- T/C (endpoint: mean survival time, dose: 200.0 mg/kg/injection, schedule: Q01DX005 (ip), vehicle: water): 87 % of control
- T/C (endpoint: mean survival time, dose: 200.0 mg/kg/injection, schedule: Q01DX009 (oral), vehicle: saline): 114 % of control
- T/C (endpoint: mean survival time, dose: 200.0 mg/kg/injection, schedule: Q03HX008 (oral), vehicle: saline): 94 % of control
- T/C (endpoint: mean survival time, dose: 200.0 mg/kg/injection, schedule: Q03HX016 (ip), vehicle: saline): 118 % of control
- T/C (endpoint: mean survival time, dose: 200.0 mg/kg/injection, schedule: Q08DX002 (oral), vehicle: saline): 103 % of control
- T/C (endpoint: mean survival time, dose: 200.0 mg/kg/injection, schedule: Q#A X018 (ip), vehicle: saline): 88 % of control
- T/C (endpoint: mean survival time, dose: 250.0 mg/kg/injection, schedule: Q01DX001 (ip), vehicle: saline): 111 % of control
- T/C (endpoint: mean survival time, dose: 250.0 mg/kg/injection, schedule: Q01DX001 (oral), vehicle: saline): 108 % of control
- T/C (endpoint: mean survival time, dose: 250.0 mg/kg/injection, schedule: Q01DX001 (sc), vehicle: saline): 123 % of control
- T/C (endpoint: mean survival time, dose: 250.0 mg/kg/injection, schedule: Q01DX009 (ip), vehicle: saline): 108 % of control
- T/C (endpoint: mean survival time, dose: 250.0 mg/kg/injection, schedule: Q01DX009 (oral), vehicle: saline): 121 % of control
- T/C (endpoint: mean survival time, dose: 250.0 mg/kg/injection, schedule: Q01DX009 (sc), vehicle: saline): 122 % of control
- T/C (endpoint: mean survival time, dose: 250.0 mg/kg/injection, schedule: Q03HX024 (ip), vehicle: saline): 155 % of control
- T/C (endpoint: mean survival time, dose: 250.0 mg/kg/injection, schedule: Q04DX003 (ip), vehicle: saline): 162 % of control
- T/C (endpoint: mean survival time, dose: 250.0 mg/kg/injection, schedule: Q08DX002 (ip), vehicle: saline): 115 % of control
- T/C (endpoint: mean survival time, dose: 320.0 mg/kg/injection, schedule: Q01DX009 (ip), vehicle: saline): 102 % of control
- T/C (endpoint: mean survival time, dose: 400.0 mg/kg/injection, schedule: Q01DX001 (oral), vehicle: saline): 117 % of control
- T/C (endpoint: mean survival time, dose: 400.0 mg/kg/injection, schedule: Q01DX009 (oral), vehicle: saline): 109 % of control
- T/C (endpoint: mean survival time, dose: 400.0 mg/kg/injection, schedule: Q04DX003 (oral), vehicle: saline): 119 % of control
- T/C (endpoint: mean survival time, dose: 400.0 mg/kg/injection, schedule: Q08DX002 (oral), vehicle: saline): 107 % of control
- T/C (endpoint: mean survival time, dose: 500.0 mg/kg/injection, schedule: Q01DX001 (oral), vehicle: saline): 121 % of control
- T/C (endpoint: mean survival time, dose: 500.0 mg/kg/injection, schedule: Q03HX016 (ip), vehicle: saline): 154 % of control
- T/C (endpoint: mean survival time, dose: 500.0 mg/kg/injection, schedule: Q03HX024 (ip), vehicle: saline): 121 % of control
- T/C (endpoint: mean survival time, dose: 500.0 mg/kg/injection, schedule: Q08DX002 (ip), vehicle: saline): 164 % of control
- T/C (endpoint: mean survival time, dose: 800.0 mg/kg/injection, schedule: Q04DX003 (oral), vehicle: saline): 110 % of control
- T/C (endpoint: mean survival time, dose: 800.0 mg/kg/injection, schedule: Q08DX002 (oral), vehicle: saline): 156 % of control
- T/C (endpoint: mean survival time, dose: 1000.0 mg/kg/injection, schedule: Q01DX001 (oral), vehicle: saline): 151 % of control
- T/C (endpoint: mean survival time, dose: 1000.0 mg/kg/injection, schedule: Q01DX001 (sc), vehicle: saline): 159 % of control
- T/C (endpoint: mean survival time, dose: 1000.0 mg/kg/injection, schedule: Q03HX008 (ip), vehicle: saline): 157 % of control
- T/C (endpoint: mean survival time, dose: 1000.0 mg/kg/injection, schedule: Q03HX024 (ip), vehicle: saline): 92 % of control
- T/C (endpoint: mean survival time, dose: 1000.0 mg/kg/injection, schedule: Q04DX003 (ip), vehicle: saline): 98 % of control
- T/C (endpoint: mean survival time, dose: 1600.0 mg/kg/injection, schedule: Q01DX001 (oral), vehicle: saline): 103 % of control
- T/C (endpoint: mean survival time, dose: 1600.0 mg/kg/injection, schedule: Q08DX002 (oral), vehicle: saline): 97 % of control
- T/C (endpoint: median survival time, dose: 51.8 mg/kg/injection, schedule: Q04DX002 (ip), vehicle: saline): 107 % of control
- T/C (endpoint: median survival time, dose: 86.4 mg/kg/injection, schedule: Q04DX002 (ip), vehicle: saline): 114 % of control
- T/C (endpoint: median survival time, dose: 144.0 mg/kg/injection, schedule: Q04DX002 (ip), vehicle: saline): 121 % of control
- T/C (endpoint: median survival time, dose: 400.0 mg/kg/injection, schedule: Q04DX002 (ip), vehicle: saline): 105 % of control

Structure (SMILES): O=C(O)c1cc([N+](=O)[O-])ccc1Br
- T/C [1]: 103 % of control
- T/C [2]: 105 % of control
- T/C [3]: 95 % of control

Structure (SMILES): CCCCCCCCCCOc1ccc(/C=N\N=C\c2ccc(OCCCCCCCCCC)cc2)cc1
- T/C [1]: 94 % of control
- T/C [2]: 94 % of control
- T/C [3]: 92 % of control

Structure (SMILES): O=C(O)CCC(O)CC(=O)OCc1ccccc1 (stereo unspecified)
- T/C (endpoint: mean survival time, dose: 100.0 mg/kg/injection, schedule: Q04DX002 (ip), vehicle: saline): 107 % of control
- T/C (endpoint: mean survival time, dose: 200.0 mg/kg/injection, schedule: Q04DX002 (ip), vehicle: saline): 107 % of control
- T/C (endpoint: mean survival time, dose: 400.0 mg/kg/injection, schedule: Q04DX002 (ip), vehicle: saline): 96 % of control
